# Source: patent US7192931B2, “Treatment of demyelinating diseases” (Neuren Pharmaceuticals Ltd., priority 2000, dated 2007)
# Columns and labels:
# oligodendrocytes = settings: Smith et al., 2000, Pitt et al.; cited from earlier work
# EAE = settings: Smith et al., 2000, Pitt et al.; cited from earlier work
# [1] = tested on: C57Bl/6 mice with MOG35-55 peptide-induced EAE; assay: Expanded disability status scale for EAE treated mice; type: in vivo, mouse; settings: for Maximal disability score: Alertness / Maximal disability score: Bladder function / Maximal disability score: Eye movements / Maximal disability score: Motor (grip)* / Maximal disability score: Other signs (shine hairs and loose skin) / Maximal disability score: Sensory* Light touch / Maximal disability score: Sensory* Pain / Maximal disability score: Spontaneous mobility / Maximal disability score: Tone* / Maximal disability score: Tremor / Maximal disability score: Vision (including pupillary reflex) / Total expanded disability scale: mean values
# Procedure: (§1) C57Bl/6 mice (8–10 week old) were injected subcutaneously in one flank with 300 μg of MOG35-55 peptide ([…]: SEQ ID NO:1) synthesized by Mimotapes Pty Ltd, Clayton, Australia and emulsified in CFA containing 500 μg of Mycobacterium tuberculosis H37Ra (DIFCO Laboratories, Detrit, USA). They also received 500 ng of pertussis toxin (List Biological Laboratories, CA, USA) in 200 μl PBS intravenously via the tail vein, followed 48 hours later by a second dose. A second injection of MOG peptide was given in the absence of pertussis toxin one week later in the opposite flank, as described previously (Kanwar et al., 2000b).
# (§2) Two treatment protocols were employed, involving the treatment of early disease, versus advanced disease. For early disease, reagents were administered at day 35 (following MOG injection). Antibody was administered thrice on alternate days, whereas neuroprotectors were given daily for 6 days, where 50% of reagent was given ip and 50% iv. In the treatment of advanced disease, therapy as above was initiated at day 60, with either three or eight anti-MAdCAM-1 mAb injections, and neuroprotectors given daily for either 7 or 18 days.
# (§3) The mice were monitored daily and scored according to the following scale: 0, no clinical signs of EAE; 1, limp tail; 2, partial hind limb paralysis; 3, complete hind limb paralysis; 4, complete hind limb and partial fore limb paralysis; 5, paralysis extending to diaphragm; 6, hind and fore limb paralysis; 7, death due to EAE. Paralysis extending to the diaphragm was denoted as difficulty in remaining upright. […] The daily mean clinical score for each group is the mean disease score of at least five mice. The body weight of animals was measured regularly throughout the experiments. The expanded disability status scale for EAE treated mice was scored using an earlier published scoring system (Villoslada et al. 2000).
# [2] = tested on: apoptotic cells in spinal cord of EAE mice; assay: In situ detection of apoptotic cells in the CNS by TUNEL assay; type: in vivo, mouse; settings: spinal cord sections, compared to mice mock treated with PBS or rat IgG
# Procedure: Cells undergoing apoptosis were identified using the in situ TUNEL assay. Five-μm thick serial sections of brain and spinal cord were prepared to detect apoptosis by TUNEL (i.e., terminal deoxynucleotidyl transferase-mediated deoxyuridine triphosphate-digoxigenin nick end labeling) staining using the In Situ Apoptosis Detection Kit from Boehringer Mannheim (Germany). Briefly, frozen sections were fixed in 4% paraformaldehyde, permeabilized in 0.1% Triton X-100, incubated with 20 μL TUNEL reagent for 60 minutes at 37° C., and then examined by fluorescence microscopy. Adjacent sections were counterstained with hematoxylin and mounted onto poly-L-lysine coated slides to allow the total number of nucleated cells to be counted. The percentage of apoptotic cells was assessed in ten randomly selected fields viewed at 40× magnification. The apoptotic index (AI) was calculated as follows: AI=number of apoptotic (TUNEL-positive) cells×100/total number of nucleated cells.
# [3] = tested on: C57Bl/6 mice with MOG35-55 peptide-induced EAE; assay: Clinical scoring of MOG35-55-induced EAE; type: in vivo, mouse
# Procedure: as §1, §2, §3
# The rat hybridoma MECA-367 (rat IgG2a),5 which secretes a mAb against mouse MAdCAM-1 was either provided by Dr Eugene Butcher, Stanford University, Stanford, Calif. (FIGS. 1A and B), or obtained directly from the American Type Culture Collection, Rockville, Md. (FIG. 1C, and remainder of studies). Rat IgG obtained from Sigma Co., USA, served as a control. Antibodies were administered into the tail vein (70% of mAb) and intraperitoneally (30% of mAb) at 10 mg/Kg separately or in combination on alternate days at the time points indicated (FIGS. 1–4). The rat IgG control antibody was also administered at 10 mg/Kg. Backbones from sacrificed mice were frozen in isopentane at −70° C. Transverse 10 μm sections made through the spinal cord of control and diseased mice, in each case made at the same levels of the cord, were mounted on poly L-lysine-coated slides, and stained with haematoxylin and eosin.
smiles,measurement,setting,value
"NS(=O)(=O)c1cccc2c1c([N+](=O)[O-])cc1nc(O)c(O)nc12 [NBQX, 2,3-dihydroxy-6-nitro-7-sulfamoylbenzo(f)quinoxaline]",excitotoxic effects of glutamate on oligodendrocytes,oligodendrocytes,inhibits the excitotoxic effects of glutamate on oligodendrocytes
same,pathogenesis of EAE,EAE,slightly ameliorates the pathogenesis of EAE
same,total scores (disability scale),"[1]; at day 70 as printed, 35 for rat IgG treated control mice",30
same,Maximal disability score: Alertness,[1]; day 55 after immunization,2
same,Maximal disability score: Bladder function,[1]; day 55 after immunization,0
same,Maximal disability score: Eye movements,[1]; day 55 after immunization,1
same,Maximal disability score: Motor (grip)*,[1]; day 55 after immunization,12
same,Maximal disability score: Other signs (shine hairs and loose skin),[1]; day 55 after immunization,3
same,Maximal disability score: Sensory* Light touch,[1]; day 55 after immunization,8
same,Maximal disability score: Sensory* Pain,[1]; day 55 after immunization,8
same,Maximal disability score: Spontaneous mobility,[1]; day 55 after immunization,3
same,Maximal disability score: Tone*,[1]; day 55 after immunization,12
same,Maximal disability score: Tremor,[1]; day 55 after immunization,2
same,Maximal disability score: Vision (including pupillary reflex),[1]; day 55 after immunization,1
same,Total expanded disability scale,[1]; day 55 after immunization,53
same,Maximal disability score: Alertness,[1]; day 60 after immunization,2
same,Maximal disability score: Bladder function,[1]; day 60 after immunization,1
same,Maximal disability score: Eye movements,[1]; day 60 after immunization,1
same,Maximal disability score: Motor (grip)*,[1]; day 60 after immunization,12
same,Maximal disability score: Other signs (shine hairs and loose skin),[1]; day 60 after immunization,2
same,Maximal disability score: Sensory* Light touch,[1]; day 60 after immunization,8
same,Maximal disability score: Sensory* Pain,[1]; day 60 after immunization,8
same,Maximal disability score: Spontaneous mobility,[1]; day 60 after immunization,3
same,Maximal disability score: Tone*,[1]; day 60 after immunization,12
same,Maximal disability score: Tremor,[1]; day 60 after immunization,2
same,Maximal disability score: Vision (including pupillary reflex),[1]; day 60 after immunization,1
same,Total expanded disability scale,[1]; day 60 after immunization,53
same,Maximal disability score: Alertness,[1]; day 65 after immunization,1
same,Maximal disability score: Bladder function,[1]; day 65 after immunization,0
same,Maximal disability score: Eye movements,[1]; day 65 after immunization,0
same,Maximal disability score: Motor (grip)*,[1]; day 65 after immunization,4
same,Maximal disability score: Other signs (shine hairs and loose skin),[1]; day 65 after immunization,0
same,Maximal disability score: Sensory* Light touch,[1]; day 65 after immunization,0
same,Maximal disability score: Sensory* Pain,[1]; day 65 after immunization,0
same,Maximal disability score: Spontaneous mobility,[1]; day 65 after immunization,2
same,Maximal disability score: Tone*,[1]; day 65 after immunization,8
same,Maximal disability score: Tremor,[1]; day 65 after immunization,0
same,Maximal disability score: Vision (including pupillary reflex),[1]; day 65 after immunization,0
same,Total expanded disability scale,[1]; day 65 after immunization,15
same,Maximal disability score: Alertness,[1]; day 70 after immunization,1
same,Maximal disability score: Bladder function,[1]; day 70 after immunization,0
same,Maximal disability score: Eye movements,[1]; day 70 after immunization,1
same,Maximal disability score: Motor (grip)*,[1]; day 70 after immunization,4
same,Maximal disability score: Other signs (shine hairs and loose skin),[1]; day 70 after immunization,0
same,Maximal disability score: Sensory* Light touch,[1]; day 70 after immunization,0
same,Maximal disability score: Sensory* Pain,[1]; day 70 after immunization,0
same,Maximal disability score: Spontaneous mobility,[1]; day 70 after immunization,3
same,Maximal disability score: Tone*,[1]; day 70 after immunization,4
same,Maximal disability score: Tremor,[1]; day 70 after immunization,0
same,Maximal disability score: Vision (including pupillary reflex),[1]; day 70 after immunization,0
same,Total expanded disability scale,[1]; day 70 after immunization,13
same,Maximal disability score: Alertness,[1]; day 75 after immunization,1
same,Maximal disability score: Bladder function,[1]; day 75 after immunization,1
same,Maximal disability score: Eye movements,[1]; day 75 after immunization,0
same,Maximal disability score: Motor (grip)*,[1]; day 75 after immunization,8
same,Maximal disability score: Other signs (shine hairs and loose skin),[1]; day 75 after immunization,0
same,Maximal disability score: Sensory* Light touch,[1]; day 75 after immunization,4
same,Maximal disability score: Sensory* Pain,[1]; day 75 after immunization,8
same,Maximal disability score: Spontaneous mobility,[1]; day 75 after immunization,3
same,Maximal disability score: Tone*,[1]; day 75 after immunization,4
same,Maximal disability score: Tremor,[1]; day 75 after immunization,0
same,Maximal disability score: Vision (including pupillary reflex),[1]; day 75 after immunization,1
same,Total expanded disability scale,[1]; day 75 after immunization,30
same,Maximal disability score: Alertness,[1]; day 119 after immunization,1
same,Maximal disability score: Bladder function,[1]; day 119 after immunization,0
same,Maximal disability score: Eye movements,[1]; day 119 after immunization,1
same,Maximal disability score: Motor (grip)*,[1]; day 119 after immunization,4
same,Maximal disability score: Other signs (shine hairs and loose skin),[1]; day 119 after immunization,2
same,Maximal disability score: Sensory* Light touch,[1]; day 119 after immunization,4
same,Maximal disability score: Sensory* Pain,[1]; day 119 after immunization,4
same,Maximal disability score: Spontaneous mobility,[1]; day 119 after immunization,2
same,Maximal disability score: Tone*,[1]; day 119 after immunization,4
same,Maximal disability score: Tremor,[1]; day 119 after immunization,1
same,Maximal disability score: Vision (including pupillary reflex),[1]; day 119 after immunization,0
same,Total expanded disability scale,[1]; day 119 after immunization,23
same,reductions in the numbers of apoptotic cells,[2],~30%
same,effectiveness of prolonged treatment on disease severity,"[3]; advanced disease, prolonged treatment from day 60 (FIG. 1C)",NBQX+GPE+anti-MAdCAM-1>NBQX+GPE>NBQX>GPE
same,effect on advanced EAE (clinical symptoms),"[3]; advanced disease, mAb three injections from day 51, neuroprotectors 7 days from day 60 (FIG. 1B)",only caused temporary remission
same,effect on development of EAE (clinical symptoms),"[3]; early disease, treatment from day 35 (FIG. 1A)","suppressed EAE, but to a greater extent than achieved with GPE"
